Data taken from US6506772B1, “Substituted [1,2,4]triazolo[1,5a]pyridine derivatives with activity as adenosine receptor ligands” (Hoffmann-La Roche Inc., priority 2000, dated 2003).

Target: T1, human adenosine A2A receptor (Homo sapiens, UniProt P29274)
T1 construct: expressed in transfected cells; host or cells: CHO cells, Semliki Forest virus expression system; membrane preparation
Experiment: Human adenosine A2A receptor [3H]-SCH-58261 binding assay
Settings: affinity to human adenosine A2A receptor; read-out: Ki HA2A
Experimental: Human Adenosine A2A Receptor
The human adenosine A2A receptor was recombinantly expressed in chinese hamster ovary (CHO) cells using the semliki forest virus expression system. Cells were harvested, washed twice by centrifugation, homogenized and again washed by centrifugation. The final washed membrane pellet was suspended in a Tris (50 mM) buffer containing 120 mM NaCl, 5 mM KCl, 2 mM CaCl2 and 10 MM MgCl2 (pH 7.4) (buffer A). […] Compounds were tested at 10 concentrations from 10 μM-0.3 nM. All assays were conducted in duplicate and repeated at least two times. Assay plates were incubated for 1 hour at room temperature before centrifugation and then bound ligand determined using a Packard Topcount scintillation counter. IC50 values were calculated using a non-linear curve fitting program and Ki values calculated using the Cheng-Prussoff equation.

T1 sequence (P29274 whole entry): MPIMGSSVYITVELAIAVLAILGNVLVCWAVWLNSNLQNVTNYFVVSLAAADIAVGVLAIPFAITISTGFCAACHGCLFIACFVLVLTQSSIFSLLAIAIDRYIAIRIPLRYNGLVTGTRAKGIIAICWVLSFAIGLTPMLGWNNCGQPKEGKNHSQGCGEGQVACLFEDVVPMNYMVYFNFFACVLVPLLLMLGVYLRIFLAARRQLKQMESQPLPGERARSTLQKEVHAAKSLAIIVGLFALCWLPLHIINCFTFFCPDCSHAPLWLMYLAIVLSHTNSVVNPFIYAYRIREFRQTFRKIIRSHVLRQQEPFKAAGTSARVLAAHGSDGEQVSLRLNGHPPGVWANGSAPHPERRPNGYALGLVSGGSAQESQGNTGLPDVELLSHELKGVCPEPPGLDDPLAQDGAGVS

Ki [nM] | SMILES
375 | Cc1ccsc1-c1nc2cc(C(=O)NC3CCCCC3)cc(N)n2n1 [Example 37, 5-Amino-2-(3-methyl-thiophen-2-yl)-[1,2,4]triazolo[1,5-a]pyridine-7-carboxylic acid cyclohexylamide]
327 | COc1ccc(-c2nc3cc(C(=O)N(CCN(C)C)Cc4ccccc4)cc(N)n3n2)s1 [Example 53, 5-Amino-2-(5-methoxy-thiophen-2-yl)-[1,2,4]triazolo[1,5-a]pyridine-7-carboxylic acid benzyl-(2-dimethylamino-ethyl)-amide]
315 | COc1ccc(-c2nc3cc(C(=O)NCCc4ccccc4OC)cc(N)n3n2)s1 [Example 54, 5-Amino-2-(5-methoxy-thiophen-2-yl)-[1,2,4]triazolo[1,5-a]pyridine-7-carboxylic acid [2-(2-methoxy-phenyl)-ethyl]-amide]
337 | COc1ccc(-c2nc3cc(C(=O)NCCc4ccccc4F)cc(N)n3n2)s1 [Example 57, 5-Amino-2-(5-methoxy-thiophen-2-yl)-[1,2,4]triazolo[1,5-a]pyridine-7-carboxylic acid [2-(2-fluoro-phenyl)-ethyl]-amide]
392 | COc1ccc(-c2nc3cc(C(=O)NC(C)c4ccccc4)cc(N)n3n2)s1 (centres unmarked) [Example 60, 5-Amino-2-(5-methoxy-thiophen-2-yl)-[1,2,4]triazolo[1,5-a]pyridine-7-carboxylic acid (1-phenyl-ethyl)-amide]
333 | COc1ccc(-c2nc3cc(C(=O)NCc4cccnc4)cc(N)n3n2)s1 [Example 61, 5-Amino-2-(5-methoxy-thiophen-2-yl)-[1,2,4]triazolo[1,5-a]pyridine-7-carboxylic acid (pyridin-3-ylmethyl)-amide]
339 | COc1ccc(-c2nc3cc(C(=O)N4CCCC4)cc(N)n3n2)s1 [Example 69, [5-Amino-2-(5-methoxy-thiophen-2-yl)-[1,2,4]triazolo[1,5-a]pyridin-7-yl]-pyrrolidin-1-yl-methanone]
260 | COc1ccc(-c2nc3cc(C(=O)NC4CC4)cc(N)n3n2)s1 [Example 72, 5-Amino-2-(5-methoxy-thiophen-2-yl)-[1,2,4]triazolo[1,5-a]pyridine-7-carboxylic acid cyclopropylamide]
367 | COc1ccc(-c2nc3cc(C(=O)NC4CCCCCC4)cc(N)n3n2)s1 [Example 74, 5-Amino-2-(5-methoxy-thiophen-2-yl)-[1,2,4]triazolo[1,5-a]pyridine-7-carboxylic acid cycloheptylamide]
28.5 | CCN(Cc1ccccc1F)C(=O)c1cc(N)n2nc(-c3ccc(OC)s3)nc2c1 [Example 76, 5-Amino-2-(5-methoxy-thiophen-2-yl)-[1,2,4]triazolo[1,5-a]pyridine-7-carboxylic acid ethyl-(2-fluoro-benzyl)-amide]
392 | Nc1cc(C(=O)NC2CCC2)cc2nc(-c3ccc[nH]3)nn12 [Example 95, 5-Amino-2-(1H-pyrrol-2-yl)-[1,2,4]triazolo[1,5-a]pyridine-7-carboxylic acid cyclobutylamide]

The next lines start with the molecule.

SMILES | Ki [nM]
COc1ccc(CNC(=O)c2cc(N)n3nc(-c4ccccn4)nc3c2)cc1 [Example 42, 5-Amino-2-pyridin-2-yl-[1,2,4]triazolo[1,5-a]pyridine-7-carboxylic acid 4-methoxy-benzylamide] | 341
Nc1cc(C(=O)NCc2ccccc2Br)cc2nc(-c3ccc[nH]3)nn12 [Example 92, 5-Amino-2-(1H-pyrrol-2-yl)-[1,2,4]triazolo[1,5-a]pyridine-7-carboxylic acid 2-bromo-benzylamide] | 293
CCN(Cc1ccccc1)C(=O)c1cc(N)n2nc(-c3ccc[nH]3)nc2c1 [Example 94, 5-Amino-2-(1H-pyrrol-2-yl)-[1,2,4]triazolo[1,5-a]pyridine-7-carboxylic acid benzyl-ethyl-amide] | 395
COc1ccc(CNC(=O)c2cc(N)n3nc(-c4cccs4)nc3c2)cc1 [Example 229, 5-Amino-2-thiophen-2-yl-[1,2,4]triazolo[1,5-a]pyridine-7-carboxylic acid 4-methoxy-benzylamide] | 384
Nc1cc(C(=O)NCc2ccc(Cl)cc2)cc2nc(-c3ccoc3)nn12 [Example 230, 5-Amino-2-furan-3-yl-[1,2,4]triazolo[1,5-a]pyridine-7-carboxylic acid 4-chloro-benzylamide] | 329
COc1ccc(CNC(=O)c2cc(N)n3nc(-c4ccc(Br)o4)nc3c2)cc1 [Example 231, 5-Amino-2-(5-bromo-furan-2-yl)-[1,2,4]triazolo[1,5-a]pyridine-7-carboxylic acid 4-methoxy-benzylamide] | 365
Nc1cc(C(=O)N2CCSCC2)cc2nc(-c3nccs3)nn12 [Example 318, (5-Amino-2-thiazol-2-yl-[1,2,4]triazolo[1,5-a]pyridin-7-yl)-thiomorpholin-4-yl-methanone] | 332
COCCN(CCOC)C(=O)c1cc(N)n2nc(-c3nccs3)nc2c1 [Example 321, 5-Amino-2-thiazol-2-yl-[1,2,4]triazolo[1,5-a]pyridine-7-carboxylic acid bis-(2-methoxy-ethyl)-amide] | 319
CN(CCc1ccccn1)C(=O)c1cc(N)n2nc(-c3nccs3)nc2c1 [Example 324, 5-Amino-2-thiazol-2-yl-[1,2,4]triazolo[1,5-a]pyridine-7-carboxylic acid methyl-(2-pyridin-2-yl-ethyl)-amide] | 295
Nc1cc(C(=O)N2CC=C(c3ccccc3)CC2)cc2nc(-c3nccs3)nn12 [Example 326, (5-Amino-2-thiazol-2-yl-[1,2,4]triazolo[1,5-a]pyridin-7-yl)-(4-phenyl-3,6-dihydro-2H-pyridin-1-yl)-methanone] | 373

Same assay, conditions: ratio KiHA1 divided by KiHA2A

selectivity (A1/A2a) | SMILES
61.4 | CN(C)C(=O)CN(C)C(=O)c1cc(N)n2nc(-c3nccs3)nc2c1 [Example 399, 5-Amino-2-thiazol-2-yl-[1,2,4]triazolo[1,5-a]pyridine-7-carboxylic acid dimethylcarbamoylmethyl-methyl-amide]
21.2 | CN(C)C(=O)[C@@H]1CCCN1C(=O)c1cc(N)n2nc(-c3nccs3)nc2c1 [Example 402, 1-(5-Amino-2-thiazol-2-yl-[1,2,4]triazolo[1,5-a]pyridine-7-carbonyl)-pyrrolidine-2-carboxylic acid dimethylamide]
15.6 | CC(=O)N(C)C1CCN(C(=O)c2cc(N)n3nc(-c4nccs4)nc3c2)C1 (centres unmarked) [Example 403, N-[1-(5-Amino-2-thiazol-2-yl-[1,2,4]triazolo[1,5-a]pyridine-7-carbonyl)-pyrrolidin-3-yl]-N-methyl-acetamide]
53.1 | CN(C)C(=O)CN(C)C(=O)c1cc(N)n2nc(-c3ccccn3)nc2c1 [Example 428, 5-Amino-2-pyridin-2-yl-[1,2,4]triazolo[1,5-a]pyridine-7-carboxylic acid dimethylcarbamoylmethyl-methyl-amide]
52.6 | CCN(CC)C(=O)C1CCCN(C(=O)c2cc(N)n3nc(-c4ccccn4)nc3c2)C1 (centres unmarked) [Example 434, 1-(5-Amino-2-pyridin-2-yl-[1,2,4]triazolo[1,5-a]pyridine-7-carbonyl)-piperidine-3-carboxylic acid diethylamide]

Same assay, conditions: recombinant human A2A in CHO cell membranes, [3H]-SCH-58261, Cheng-Prussoff; read-out: Ki hA2A

Ki [nM] | SMILES
101 | CN(C)C(=O)CN(C)C(=O)c1cc(N)n2nc(-c3nccs3)nc2c1 [Example 399, 5-Amino-2-thiazol-2-yl-[1,2,4]triazolo[1,5-a]pyridine-7-carboxylic acid dimethylcarbamoylmethyl-methyl-amide]
293 | CN(C)C(=O)[C@@H]1CCCN1C(=O)c1cc(N)n2nc(-c3nccs3)nc2c1 [Example 402, 1-(5-Amino-2-thiazol-2-yl-[1,2,4]triazolo[1,5-a]pyridine-7-carbonyl)-pyrrolidine-2-carboxylic acid dimethylamide]
398 | CC(=O)N(C)C1CCN(C(=O)c2cc(N)n3nc(-c4nccs4)nc3c2)C1 (centres unmarked) [Example 403, N-[1-(5-Amino-2-thiazol-2-yl-[1,2,4]triazolo[1,5-a]pyridine-7-carbonyl)-pyrrolidin-3-yl]-N-methyl-acetamide]
117 | CN(C)C(=O)CN(C)C(=O)c1cc(N)n2nc(-c3ccccn3)nc2c1 [Example 428, 5-Amino-2-pyridin-2-yl-[1,2,4]triazolo[1,5-a]pyridine-7-carboxylic acid dimethylcarbamoylmethyl-methyl-amide]
118 | CCN(CC)C(=O)C1CCCN(C(=O)c2cc(N)n3nc(-c4ccccn4)nc3c2)C1 (centres unmarked) [Example 434, 1-(5-Amino-2-pyridin-2-yl-[1,2,4]triazolo[1,5-a]pyridine-7-carbonyl)-piperidine-3-carboxylic acid diethylamide]

Target: T2, HA1 adenosine receptor (Homo sapiens, UniProt P30542)
T2 sequence (P30542 1-326): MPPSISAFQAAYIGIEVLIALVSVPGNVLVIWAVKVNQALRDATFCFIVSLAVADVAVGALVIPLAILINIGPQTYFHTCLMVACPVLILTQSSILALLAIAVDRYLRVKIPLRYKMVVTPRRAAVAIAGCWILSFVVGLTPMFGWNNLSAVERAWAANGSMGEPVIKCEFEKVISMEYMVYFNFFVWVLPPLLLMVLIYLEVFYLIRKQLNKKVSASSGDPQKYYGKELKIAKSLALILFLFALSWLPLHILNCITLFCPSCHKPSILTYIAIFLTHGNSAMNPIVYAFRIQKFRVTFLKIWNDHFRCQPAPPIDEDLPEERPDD
Experiment: Human adenosine A1 receptor affinity (Ki hA1)
Type: binding
Settings: affinity to human adenosine A1 receptor

Ki [nM] | SMILES
276 | Nc1cc(C(=O)N2CCCCC2)cc2nc(-c3ccc(Br)o3)nn12 [Example 23, [5-Amino-2-(5-bromo-furan-2-yl)-[1,2,4]triazolo[1,5-a]pyridin-7-yl]-piperidin-1-yl-methanone]
940 | Cc1ccc(-c2nc3cc(C(=O)N4CCCC4)cc(N)n3n2)o1 [Example 27, [5-Amino-2-(5-methyl-furan-2-yl)-[1,2,4]triazolo[1,5-a]pyridin-7-yl]-pyrrolidin-1-yl-methanone]
696 | Cc1ccc(-c2nc3cc(C(=O)N4CCCCC4)cc(N)n3n2)o1 [Example 28, [5-Amino-2-(5-methyl-furan-2-yl)-[1,2,4]triazolo[1,5-a]pyridin-7-yl]-piperidin-1-yl-methanone]

More lines, now with the values behind:

SMILES | Ki [nM]
CCN(CC)C(=O)c1cc(N)n2nc(-c3ccc(Br)o3)nc2c1 [Example 21, 5-Amino-2-(5-bromo-furan-2-yl)-[1,2,4]triazolo[1,5-a]pyridine-7-carboxylic acid diethylamide] | 232
Nc1cc(C(=O)N2CCCC2)cc2nc(-c3ccc(Br)o3)nn12 [Example 22, [5-Amino-2-(5-bromo-furan-2-yl)-[1,2,4]triazolo[1,5-a]pyridin-7-yl]-pyrrolidin-1-yl-methanone] | 548
Nc1cc(C(=O)N2CCCC2)cc2nc(-c3ccco3)nn12 [Example 106, (5-Amino-2-furan-2-yl-[1,2,4]triazolo[1,5-a]pyridin-7-yl)-pyrrolidin-1-yl-methanone] | 1730
Nc1cc(C(=O)N2CCCCC2)cc2nc(-c3ccco3)nn12 [Example 107, (5-Amino-2-furan-2-yl-[1,2,4]triazolo[1,5-a]pyridin-7-yl)-piperidin-1-yl-methanone] | 2720
